{"source": "patent US20080176934A1", "about": "“Use Of Diosmetin Compounds In The Treatment And Prevention Of Thrombotic Pathologies” (Les Laboratoires Servier, priority 2005, published 2008)", "key": {"PAI-1 promoter": {"test_system": "PAI-1 promoter", "assay": "PAI-1 promoter activity (PGL3/PAI-1 luciferase reporter) in transfected HepG2 cells", "format": "cell-based, human", "details": "for Activity in cpm (PAI-1 promoter activity): 10 μM, 24 h, n=6; for inhibition at 10 µM: Homo sapiens, HepG2, 24 h, read-out: % inhibition/control (PAI-1 promoter activity)", "method": "The study is carried out on a line of human hepatocytes HepG2 (ATCC, no. HB-8065). The cells are cultured in a medium of MEM (minimal essential medium) with glutamax-1 (Gibco™) containing 10% FCS (foetal calf serum), 1% non-essential amino acids and 1% sodium pyruvate and supplemented with penicillin and streptomycin.\nA fragment of 2.5 kb, corresponding to the PAI-1 promoter, extending from the nucleotides at positions −2442 to +136, was amplified by PCR and sub-cloned (Lopez et al., 2000, Atherosclerosis, 152, 359-366). In a final reaction volume of 50 μl, 2.5 units of Platinum® TaqDNA Polymerase High Fidelity (Invitrogen) are placed in the presence of 300 ng of human genomic DNA (Clontech), 300 μM of dNTP (deoxynucleotide triphosphate) (Clontech), 300 nM of primers in a medium containing the buffer specific to the enzyme, supplemented by 1.5 mM of MgCl2 and different concentrations of PCRx Enhancer System (Invitrogen), which facilitates amplification of the especially difficult sequences (0 to 4×). The set of primers used (Chen et al. Differential mechanisms of PAI-1 gene activation by transforming growth factor beta and tumor necrosis factor alpha in endothelial cells, 2001, Thrmb Haemost, 86, 1563-72) is as follows:\nLigation of the pGL3-Basic plasmid vector and the insert corresponding to the PAI-1 promoter was carried out by means of T4 DNA Ligase (LigaFast™ Rapid DNA Ligation System from Promega). Conventionally, during ligation, there is used an excess of insert which is equivalent to three times the amount of vector. Furthermore, because this insert is half as long as the vector (2.5 kb as opposed to 4.8 kb), maintaining stoichiometric equilibrium requires twice the mass of […]. 37.5 ng of insert and 25 ng of pGL3-Basic vector were therefore reacted in the presence of 3 units of T4 ligase, at ambient temperature.\nThe PGL3/PAI-1 plasmid is transfected into HepG2 cells. Transfection is carried out in plates having cells at 50% confluence, depositing Lipofectin® (1 mg/ml) and 1.5 μg of PGL3/PAI-1 plasmid in each of the wells. The Lipofectin® is activated for 30 min in an OPTI-MEM medium (GIBCO™) and then brought into contact for 15 min with the plasmids previously diluted with the medium. The cells are incubated for 6 hours at 37° C. in an atmosphere containing 5% CO2 and 95% […]. The transfection medium is withdrawn and replaced overnight by an enriched culture medium in order to stabilise the cells. Expression of the reporter genes is induced over 24 h in an MEM medium without serum. The cells are scratched and lysed in a lysis buffer (Dual-Luciferase® kit, Promega) and then held at −20° C.\nThe induction phase is 24 h for the HepG2 cells in the presence of TGFβ1 (1 ng/ml). During that induction phase, a PAI-1 expression inhibitor may be added 4 h before TGFβ1 and kept in contact with the cells until the end of the 24 h of the induction phase.\nThe PAI-1 promoter activity is determined by quantification of the luciferase activity produced (Dual-Luciferase® kit, Promega). To each well there is added a solution of luciferin, the substrate of firefly luciferase. […] The plate is incubated for 10 min in the dark because the luciferase activity is sensitive to light, and then a luminometer reading is started in order to quantify the photons emitted (Wallac, Perkin Elmer), the result obtained being the average cpm (counts per minute) over a period of 5 s.\n6,8-Diallyl-5,7-dihydroxy-2-(2-allyl-3-hydroxy-4-methoxyphenyl)-4H-1-benzopyran-4-one, arbitrarily referred to as compound A, and T686 of formula 3(E)-benzylidene-4(E)-(3,4,5-trimethoxybenzylidene)pyrrolidine-2,5-dione (PAI-1 expression inhibitor of reference, from Tanabe) were tested at a concentration of 10 μM on HepG2 cells in the basal state and after induction with TGFβ1. The PAI-1 promoter activity is measured in the control condition and in the presence of inhibitors, in the basal and induced states."}, "[1]": {"test_system": "arterial thrombosis induced by FeCl3 on the abdominal aorta", "assay": "Model of arterial thrombosis induced by FeCl3 on the abdominal aorta in the rat", "format": "in vivo", "details": "male CD rats, 30 mg/kg/day per os for 5 days, FeCl3 50% on aorta", "method": "The studies were carried out on male CD rats weighing between 250 and 400 g (Charles River Laboratories). The experimental protocol carried out on groups of from 6 to 8 rats comprises a group for each compound under test to be compared with a control group in which the rats are treated with a solvent. These rats are used to study the effects of an antithrombotic in a model of arterial thrombosis induced by FeCl3 on the abdominal aorta (Tanaka et al. Z-335, a new thromboxane A2 receptor antagonist, prevents arterial thrombosis induced by ferric chloride in rats, 2000, Eur. J. Pharmacol., 401, 413-418).\nThe rats are treated with the compound under test, for example 6,8-diallyl-5,7-dihydroxy-2-(2-allyl-3-hydroxy-4-methoxyphenyl)-4H-1-benzopyran-4-one (30 mg/kg/day) by administration per os by gavage for 5 days before arterial thrombosis is induced in those rats. The rats are anaesthetised using pentobarbital 50 mg/kg by intraperitoneal administration and their abdominal aortas are exposed following laparotomy. […]\nThe activity of 6,8-diallyl-5,7-dihydroxy-2-(2-allyl-3-hydroxy-4-methoxyphenyl)-4H-1-benzopyran-4-one is evaluated as a function of the weight of the clot removed from the aorta, that activity being greater for a lesser weight of clot."}, "[2]": {"details": "HepG2, induced by TGFβ1 (1 ng/ml)"}}, "note": "Where two headings read alike, the source gives them in different places.", "data": [{"smiles": "C=CCc1c(-c2cc(=O)c3c(O)c(CC=C)c(O)c(CC=C)c3o2)ccc(OC)c1O", "note": "[Compound A, 6,8-diallyl-5,7-dihydroxy-2-(2-allyl-3-hydroxy-4-methoxyphenyl)-4H-1-benzopyran-4-one]", "values": [{"measurement": "Activity in cpm (PAI-1 promoter activity)", "setting": "PAI-1 promoter; HepG2, basal condition", "result": "445 ± 121", "unit": "cpm"}, {"measurement": "Activity in cpm (PAI-1 promoter activity)", "setting": "PAI-1 promoter; [2]", "result": "765 ± 138", "unit": "cpm"}, {"measurement": "inhibition at 10 µM", "setting": "PAI-1 promoter; HepG2, basal condition", "result": 69, "unit": "%"}, {"measurement": "inhibition at 10 µM", "setting": "PAI-1 promoter; [2]", "result": 78, "unit": "%"}, {"measurement": "reduction in the weight of the clot with respect to the control", "setting": "[1]", "result": "~30", "unit": "%"}, {"measurement": "Weight of clot", "setting": "[1]; n=6, control 10.6 ± 0.7 mg", "result": "7.6 ± 0.4", "unit": "mg"}]}, {"smiles": "COc1cc(/C=C2/C(=O)NC(=O)/C2=C/c2ccccc2)cc(OC)c1OC", "note": "[Compound T686, 3(E)-benzylidene-4(E)-(3,4,5-trimethoxybenzylidene)pyrrolidine-2,5-dione, reference compound]", "values": [{"measurement": "Activity in cpm (PAI-1 promoter activity)", "setting": "PAI-1 promoter; HepG2, basal condition", "result": "473 ± 143", "unit": "cpm"}, {"measurement": "Activity in cpm (PAI-1 promoter activity)", "setting": "PAI-1 promoter; [2]", "result": "1641 ± 173", "unit": "cpm"}, {"measurement": "inhibition at 10 µM", "setting": "PAI-1 promoter; HepG2, basal condition", "result": 67, "unit": "%"}, {"measurement": "inhibition at 10 µM", "setting": "PAI-1 promoter; [2]", "result": 52, "unit": "%"}]}]}
